The structures appear in SMILES notation.

The record followed here is patent publication US10898547B2, “Method of treatment of breast or colon cancer by administering muscle stimulated myokines” (Unicorn Therapeutics, LLC, priority 2016, dated 2021).

What all share (assay type): cell-based
One data set relates to HT-29. The experiment in a line: 5′FU dosage determination in HT-29 cells, 96-well plate. Particulars: HT-29, after 48 hrs.
Data set [1] deals with HepG2. The experiment in a line: WST cellular proliferation assay in HepG2 HCC cells. The note with it: 24-48 hrs, sorafenib 1, 2 and 5 micromolar.
The test system of data set [2] is HepG2. The experiment in a line: Western blot of metabolic markers (pAMPK, pAKT, pACC) in HepG2 cells. More on the design: dose or concentration left out as unconfirmed. The note with it: HepG2, sorafenib (FIG. 6A). For orientation: A western blot detects proteins with antibodies after separation by electrophoresis.
A further data set has as its system Huh7. The data set can be described thus: WST cellular proliferation assay in Huh7 HCC cells. The note with it: 24-48 hrs, sorafenib 1, 2 and 5 micromolar.

Turning to `O=c1[nH]cc(F)c(=O)[nH]1` [5′FU, 5-fluorouracil], the “concentration showing the best effect without suggestion of cytotoxicity” value in the data set on HT-29 was found to be 25 µM.
As for `CNC(=O)c1cc(Oc2ccc(NC(=O)Nc3ccc(Cl)c(C(F)(F)F)c3)cc2)ccn1` [sorafenib], the cellular proliferation entry in the data set with HepG2 [1] and with Huh7 was “decrease” throughout. The pAMPK expression entry in the data set with HepG2 [2] is recorded as “increase”.
